From PMC8267945, “Plumbagin, a Natural Product with Potent Anticancer Activities, Binds to and Inhibits Dihydroorotase, a Key Enzyme in Pyrimidine Biosynthesis” (International Journal of Molecular Sciences, 2021)

Tests used:
4T1 cells [1] = assay: wound-healing assay; assay type: cell-based, mouse
Procedure: The wound-healing assay was performed to study whether PLU can inhibit 4T1 cell migration. Briefly, 4T1 cells were seeded in 24-well plates, incubated in serum-reduced medium for 6 h, wounded in a line across the well with a 200 μL pipette tip, and washed twice with the serum-reduced medium. After different treatments, cells were incubated for 24 h to allow migration.

StDHOase = target: T1, StDHOase (Salmonella typhimurium, UniProt P06204); assay: fluorescence quenching binding assay; parameters: species or system Salmonella enterica serovar Typhimurium LT2
T1 construct: made in house; host or cells: E. coli BL21(DE3)
T1 sequence (P06204 whole entry): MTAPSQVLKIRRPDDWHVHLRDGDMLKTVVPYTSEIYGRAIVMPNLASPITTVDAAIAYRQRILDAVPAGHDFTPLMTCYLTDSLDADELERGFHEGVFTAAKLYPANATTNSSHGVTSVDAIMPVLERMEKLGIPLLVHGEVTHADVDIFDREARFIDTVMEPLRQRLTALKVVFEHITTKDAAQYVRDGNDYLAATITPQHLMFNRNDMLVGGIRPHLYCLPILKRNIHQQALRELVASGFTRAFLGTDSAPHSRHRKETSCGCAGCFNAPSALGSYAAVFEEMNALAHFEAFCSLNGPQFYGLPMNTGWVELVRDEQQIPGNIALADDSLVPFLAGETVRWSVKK
Procedure: Figure 7 The data used to calculate the Kd values of various DHOases. (A) The fluorescence emission spectra of ScDHOase with PLU of different concentrations (0–200 μM; 0, 10, 20, 50, 75, 100, 125, 150, 175, and 200 μM). The decrease in intrinsic fluorescence of protein was measured at 324 nm upon excitation at 280 nm with a spectrofluorometer. […] (B) The fluorescence emission spectra of huDHOase with PLU of different concentrations (0–200 μM). (C) The fluorescence emission spectra of StDHOase with PLU of different concentrations. (D) The fluorescence emission spectra of ScDHOase–R18A with PLU of different concentrations. (E) The fluorescence emission spectra of ScDHOase–T106A with PLU of different concentrations. […] (F) An aliquot amount of PLU was added to the enzyme solution to determine the Kd. The Kd was obtained by the following equation: ΔF = ΔFmax − Kd(ΔF/[PLU]). Data points are an average of 2–3 determinations within a 10% error.
The decrease in the intrinsic fluorescence of DHOase was measured with a spectrofluorometer (Hitachi F-2700; Hitachi High-Technologies, Japan). The Kd was obtained using the following equation: ΔF = ΔFmax − Kd(ΔF/[PLU]).
The Kd value of the purified DHOase was determined using the fluorescence quenching method as previously described for DHOase, DHPase, and DnaB helicase. Briefly, an aliquot of the compound was added into the solution containing DHOase (1 μM) and 50 mM HEPES at pH 7.0. The decrease in the intrinsic fluorescence of DHOase was measured at 324 nm upon excitation at 280 nm and 25 °C with a spectrofluorometer (Hitachi F-2700; Hitachi High-Technologies, Japan). The Kd was obtained using the following equation: ΔF = ΔFmax − Kd(ΔF/[PLU]).

4T1 cells [2] = assay: clonogenic formation assay; assay type: cell-based, mouse
Procedure: A clonogenic formation assay was used to assess the 4T1 cell growth to study whether the PLU can inhibit 4T1 cell proliferation. Briefly, 4T1 cells were seeded at a density of 10^3 cells per well into 6-well plates and incubated overnight for attachment. After different treatments, plates were incubated for 5–7 days to allow clonogenic growth. After washing with PBS, colonies were fixed with methanol and stained with 0.5% crystal violet for 20 min, and the number of colonies was counted under a light microscope.

ScDHOase = target: T2, ScDHOase (Saccharomyces cerevisiae, UniProt P20051); assay: rapid spectrophotometric DHOase enzyme assay (hydrolysis of DHO); assay type: biochemical
T2 construct: made in house; host or cells: E. coli BL21(DE3)
T2 sequence (P20051 whole entry): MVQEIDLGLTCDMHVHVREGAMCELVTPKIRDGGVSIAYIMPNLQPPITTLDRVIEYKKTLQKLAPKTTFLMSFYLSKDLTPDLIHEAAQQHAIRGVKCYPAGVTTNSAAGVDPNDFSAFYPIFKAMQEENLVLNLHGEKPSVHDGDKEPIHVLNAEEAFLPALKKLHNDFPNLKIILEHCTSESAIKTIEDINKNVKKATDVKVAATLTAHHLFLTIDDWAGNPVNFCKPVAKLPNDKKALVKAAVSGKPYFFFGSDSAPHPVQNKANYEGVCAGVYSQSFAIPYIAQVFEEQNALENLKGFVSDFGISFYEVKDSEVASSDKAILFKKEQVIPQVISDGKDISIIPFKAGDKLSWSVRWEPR
Procedure: PLU (50 μM) was included in the standard assay for analyzing the enzyme activity under different substrate concentrations. […] Data points are an average of three determinations within the 10% error.
(§1) A rapid spectrophotometric assay was used to determine the activity of DHOase. Briefly, the hydrolysis of DHO was measured at 25 °C as the decrease in absorbance at 230 nm. The purified DHOase was added to a 2 mL solution containing 0.5 mM DHO and 100 mM Tris–HCl at pH 8.0 to start the reaction. The extinction coefficient of DHO was 0.92 mM^−1·cm^−1 at 230 nm. The hydrolysis of DHO was monitored using a UV/Vis spectrophotometer (Hitachi U 3300; Hitachi High-Technologies, Tokyo, Japan). A unit of activity was defined as the amount of enzyme catalyzing the hydrolysis of 1 μmol DHO/min, and the specific activity was expressed in terms of units of activity per mg of enzyme. The kinetic parameters Km and Vmax were determined from a nonlinear plot by fitting the hydrolyzing rate from individual experiments to the Michaelis–Menten equation (Enzyme Kinetics module of Sigma-Plot; Systat Software, Chicago, IL, USA).

4T1 cells [3] = assay: chromatin condensation assay (Hoechst staining); assay type: cell-based, mouse
Procedure: The apoptosis in 4T1 cells was assayed with Hoechst 33342 staining. The 4T1 cells were seeded in 6-well plates at a density of 5 × 10^5 cells per well in a volume of […] of culture medium. Cells were allowed to adhere for 16 h. After different treatments, cells were incubated for an additional 24 h, washed with PBS, stained with the Hoechst dye (1 μg·mL^−1) in the dark at RT for 10 min, and imaged using an inverted fluorescence microscope (Axiovert 200 M; Zeiss Axioplam, Oberkochen, Germany) at excitation and emission wavelengths (λem) of 360 and 460 nm, respectively. The apoptotic index was calculated as follows: apoptotic index = apoptotic cell number/(apoptotic cell number + nonapoptotic cell number).

KpDHOase = target: T3, KpDHOase (Klebsiella pneumoniae subsp. pneumoniae, UniProt A6T7D6); assay: rapid spectrophotometric DHOase enzyme assay (hydrolysis of DHO); assay type: biochemical, Klebsiella pneumonia; conditions: PLU 200 μM
T3 construct: made in house; host or cells: E. coli BL21(DE3)
T3 sequence (A6T7D6 whole entry): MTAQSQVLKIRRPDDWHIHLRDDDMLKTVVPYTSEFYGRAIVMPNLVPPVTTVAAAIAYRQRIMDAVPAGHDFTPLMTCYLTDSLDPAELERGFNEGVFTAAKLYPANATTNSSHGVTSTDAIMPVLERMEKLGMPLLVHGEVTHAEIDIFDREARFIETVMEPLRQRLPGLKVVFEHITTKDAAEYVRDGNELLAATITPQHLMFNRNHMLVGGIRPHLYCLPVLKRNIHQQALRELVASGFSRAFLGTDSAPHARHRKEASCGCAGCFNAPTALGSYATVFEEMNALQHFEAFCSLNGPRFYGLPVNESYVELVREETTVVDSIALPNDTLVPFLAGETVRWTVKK
Procedure: as §1

4T1 cells [4] = assay: in vitro; assay type: cell-based, mouse; conditions: 10 μM PLU, 24 h, 4T1 cells
Procedure: (§2) The 4T1 cells (1 × 10^4) were incubated with PLU in a 100 μL volume. After 24 h, the anticancer potentiality was estimated.

in vitro = assay type: cell-based, mouse; conditions: mouse; PLU 2 μM, 4T1 cells; read-out: Death rate (cell mortality)
Procedure: as §2

CC1=CC(=O)c2c(O)cccc2C1=O [PLU, plumbagin]
inhibition at 10 µM (4T1 cells [1]; Mus musculus, 10 μM PLU, 24 h, read-out: inhibition of cell migration): 97% | Migration rate (4T1 cells [1]; PLU 2 μM): 84% | Kd (StDHOase): 80.3 ± 2.5 µM | quenching of StDHOase (StDHOase; PLU 0–200 μM): 85.9% | λem shift of StDHOase (StDHOase; PLU 0–200 μM): 11.0 nm | λmax of StDHOase emission (StDHOase; PLU 0–200 μM): from 330.5 to 319.5 | Colony count (4T1 cells [2]; PLU 2 μM): 73% | suppression of proliferation and colony formation (4T1 cells [2]; pretreatment with 10 μM PLU): 98% | inhibition type (Lineweaver–Burk plot) (ScDHOase; PLU 50 μM, different substrate concentrations): competitive inhibitor | Vmax of ScDHOase in the presence of PLU (ScDHOase; PLU 50 μM, without PLU 69.9 ± 1.0): 64.1 ± 2.8 µmol/mg/min | decrease of the activity of ScDHOase (ScDHOase; PLU 200 μM): 66% | apoptosis with DNA fragmentation (4T1 cells [3]; 10 μM PLU): 100% | Apoptotic rate (4T1 cells [3]; PLU 2 μM): 8% | decrease of the activity of KpDHOase (KpDHOase): 69% | cell deaths (4T1 cells [4]): 100% | mortality at 24 h, 2 μM (in vitro): 8%
